molecular target: T1, human NaV1.8 (hNaV1.8) ion channel (Homo sapiens, UniProt Q9Y5Y9); experiment: Inhibition of Human NaV1.8 stably expressed in SH-SY-5Y cells (membrane potential dye fluorescence assay); format: cell-based; conditions: SH-SY-5Y cells stably expressing hNaV1.8; FLIPR membrane potential dye; 10 μM pyrethroid, 250 nM TTX; test range 100 μM-0.05 μM; read-out: hNav1.8 IC50
T1 construct: expressed in transfected cells
Experimental: Inhibition of Human NaV1.8 stably expressed in SH-SY-5Y cells
A SH-SY-5Y neuroblastoma cell line stably expressing the human NaV1.8 (hNaV1.8) ion channel was constructed. This cell line has been used to develop a medium to high throughput assay for determining the ability of test compounds to inhibit membrane depolarisation mediated via the hNaV1.8 channel.
SH-SY-5Y hNaV1.8 are grown in adherent monolayer culture using 50:50 Ham's F-12/EMEM tissue culture medium supplemented with 15% (v/v) foetal bovine serum; 2 mM L-glutamine, 1% NEAA and 600 μg·ml^−1 Geneticin sulphate. Cells are removed from the tissue culture flask using trypsin/EDTA and re-plated into black walled, clear bottom 96-well assay plates at 50,000 cells·well^−1 24 hours prior to assay.
On the day of assay the cell assay plates are washed to remove cell culture medium using a sodium free assay buffer (145 mM tetramethyl ammonium chloride; 2 mM calcium chloride; 0.8 mM magnesium chloride hexahydrate; 10 mM HEPES; 10 mM glucose; 5 mM potassium chloride, pH 7.4). Fluorescent membrane potential dye solution (FLIPR™ membrane potential dye, Molecular Devices Corporation), containing 10 μM of a pyrethroid to prevent channel inactivation and 250 nM tetrodotoxin (TTX) to reduce interference from TTX-sensitive sodium channels present in the cell line. Test compound, initially dissolved in dimethyl sulfoxide but further diluted in sodium free buffer, is added to achieve the final test concentration range of 100 μM-0.05 μM.
Cell plates are incubated for 30 minutes at room temperature to allow equilibration of dye and test compound. Plates are then transferred to a fluorescence plate reader for fluorescence measurement using an excitation wavelength of 530 nm whilst measuring fluorescence emission at 565 nm. […] Membrane depolarisation is registered by an increase in fluorescence emission at 565 nm.
The change in fluorescence seen in each test well upon the addition of sodium containing buffer is calculated relative to the baseline fluorescence for that well. This figure is then used for calculating the IC50 for each test compound.

T1 sequence (Q9Y5Y9 whole entry): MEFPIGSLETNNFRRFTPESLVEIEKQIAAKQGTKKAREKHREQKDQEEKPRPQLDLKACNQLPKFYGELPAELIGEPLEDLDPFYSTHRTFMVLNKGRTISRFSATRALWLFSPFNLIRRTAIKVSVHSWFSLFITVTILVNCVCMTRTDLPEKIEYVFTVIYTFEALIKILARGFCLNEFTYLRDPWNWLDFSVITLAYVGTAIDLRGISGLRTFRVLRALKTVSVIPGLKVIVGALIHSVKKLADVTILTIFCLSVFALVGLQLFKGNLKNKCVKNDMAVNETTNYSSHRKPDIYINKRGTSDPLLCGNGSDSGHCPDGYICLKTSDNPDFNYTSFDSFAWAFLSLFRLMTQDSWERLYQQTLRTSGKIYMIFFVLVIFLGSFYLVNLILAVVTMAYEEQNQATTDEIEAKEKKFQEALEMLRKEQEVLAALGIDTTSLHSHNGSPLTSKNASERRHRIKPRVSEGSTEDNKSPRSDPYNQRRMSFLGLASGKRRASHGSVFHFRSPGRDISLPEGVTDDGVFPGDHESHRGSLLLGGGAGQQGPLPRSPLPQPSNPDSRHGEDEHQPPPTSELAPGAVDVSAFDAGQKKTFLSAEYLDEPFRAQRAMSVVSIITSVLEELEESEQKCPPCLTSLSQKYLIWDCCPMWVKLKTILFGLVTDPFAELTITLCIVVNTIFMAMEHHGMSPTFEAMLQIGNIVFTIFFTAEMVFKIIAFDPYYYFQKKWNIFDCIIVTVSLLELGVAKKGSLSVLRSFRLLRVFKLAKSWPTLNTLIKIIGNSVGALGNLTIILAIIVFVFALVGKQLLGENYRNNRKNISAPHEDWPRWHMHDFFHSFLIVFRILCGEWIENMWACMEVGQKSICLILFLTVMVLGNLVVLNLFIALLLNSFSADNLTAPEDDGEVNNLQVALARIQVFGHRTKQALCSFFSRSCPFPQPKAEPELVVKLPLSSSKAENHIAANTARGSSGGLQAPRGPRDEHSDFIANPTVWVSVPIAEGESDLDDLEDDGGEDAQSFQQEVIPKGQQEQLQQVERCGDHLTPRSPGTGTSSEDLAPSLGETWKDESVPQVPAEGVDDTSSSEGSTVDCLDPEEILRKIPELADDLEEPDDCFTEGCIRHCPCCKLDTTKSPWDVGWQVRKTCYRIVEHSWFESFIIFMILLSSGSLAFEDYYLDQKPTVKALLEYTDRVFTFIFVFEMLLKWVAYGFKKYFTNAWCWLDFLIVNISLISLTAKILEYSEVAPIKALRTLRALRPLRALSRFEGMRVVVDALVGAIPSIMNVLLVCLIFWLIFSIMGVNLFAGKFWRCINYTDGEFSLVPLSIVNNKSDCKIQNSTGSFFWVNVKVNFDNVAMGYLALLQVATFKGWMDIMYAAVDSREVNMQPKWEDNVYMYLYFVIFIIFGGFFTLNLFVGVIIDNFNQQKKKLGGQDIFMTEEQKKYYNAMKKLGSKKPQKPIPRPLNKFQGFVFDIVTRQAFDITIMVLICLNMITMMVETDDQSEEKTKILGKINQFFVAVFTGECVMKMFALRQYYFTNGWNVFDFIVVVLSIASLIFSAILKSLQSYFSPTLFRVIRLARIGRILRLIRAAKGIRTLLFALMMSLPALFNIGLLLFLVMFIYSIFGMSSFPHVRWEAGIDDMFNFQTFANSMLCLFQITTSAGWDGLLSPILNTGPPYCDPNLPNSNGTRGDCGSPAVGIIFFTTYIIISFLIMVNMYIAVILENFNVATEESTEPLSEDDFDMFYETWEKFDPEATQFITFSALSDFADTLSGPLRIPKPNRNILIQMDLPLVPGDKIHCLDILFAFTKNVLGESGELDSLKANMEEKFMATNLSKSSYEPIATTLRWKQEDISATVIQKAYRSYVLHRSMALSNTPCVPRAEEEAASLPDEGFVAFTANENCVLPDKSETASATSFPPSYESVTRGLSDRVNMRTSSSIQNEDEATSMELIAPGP

Row | SMILES | IC50
1 | CC(NC1CN(C(=O)NC(c2ccc(F)cc2)c2ccc(F)cc2)C1)c1ccc(F)cc1 (centres unmarked) [Example 2, 3-[1-(4-Fluoro-phenyl)-ethylamino]-azetidine-1-carboxylic acid [bis-(4-fluoro-phenyl)-methyl]-amide] | 2620 nM
2 | CC(NC(=O)N1CC(NC2Cc3ccccc3C2)C1)c1ccc(C(F)(F)F)cc1 (centres unmarked) [Example 3, 3-(Indan-2-ylamino)-azetidine-1-carboxylic acid [1-(4-trifluoromethyl-phenyl)-ethyl]-amide] | 2980 nM
3 | CC(NC(=O)N1CC(NC2CCc3ccccc3C2)C1)c1ccc(C(F)(F)F)cc1 (centres unmarked) [Example 4, 3-(1,2,3,4-Tetrahydro-naphthalen-2-ylamino)-azetidine-1-carboxylic acid [1-(4-trifluoromethyl-phenyl)-ethyl]-amide] | 3320 nM
4 | CC(NC(=O)N1CC(NC2CCc3cc(F)ccc3C2)C1)c1ccc(C(F)(F)F)cc1 (centres unmarked) [Example 5, 3-(6-Fluoro-1,2,3,4-tetrahydro-naphthalen-2-ylamino)-azetidine-1-carboxylic acid [1-(4-trifluoromethyl-phenyl)-ethyl]-amide] | 1740 nM
5 | CCCCOc1ccc(NC(=O)N2CC(NC3CCc4cc(F)ccc43)C2)cc1 (centres unmarked) [Example 6, 3-(5-Fluoro-indan-1-ylamino)-azetidine-1-carboxylic acid (4-butoxy-phenyl)-amide] | 1200 nM
6 | O=C(Nc1ccc(Oc2ccc(F)cc2)cc1)N1CC(NC2CCc3cc(F)ccc32)C1 (centres unmarked) [Example 7, 3-(5-Fluoro-indan-1-ylamino)-azetidine-1-carboxylic acid [4-(4-fluoro-phenoxy)-phenyl]-amide] | 250 nM
7 | O=C(Nc1ccc(Oc2ccc(F)cc2)cc1)N1CC(NC2CCc3cc(F)ccc3C2)C1 (centres unmarked) [Example 8, 3-(6-Fluoro-1,2,3,4-tetrahydro-naphthalen-2-ylamino)-azetidine-1-carboxylic acid [4-(4-fluoro-phenoxy)-phenyl]-amide] | 310 nM
8 | O=C(Nc1ccc(Oc2ccc(F)cc2)c(F)c1)N1CC(NC2CCc3cc(F)ccc32)C1 (centres unmarked) [Example 11, 3-(5-Fluoro-indan-1-ylamino)-azetidine-1-carboxylic acid [3-fluoro-4-(4-fluoro-phenoxy)-phenyl]-amide] | 460 nM
9 | O=C(Nc1ccc(Oc2ccc(F)cc2)cc1)N1CC(NC2CCc3cc(O)ccc32)C1 (centres unmarked) [Example 12, 3-(5-Hydroxy-indan-1-ylamino)-azetidine-1-carboxylic acid [4-(4-fluoro-phenoxy)-phenyl]-amide] | 1350 nM
10 | O=C(Nc1ccc(Oc2cccc(F)c2)cc1)N1CC(NC2CCc3cc(F)ccc32)C1 (centres unmarked) [Example 13, 3-(5-Fluoro-indan-1-ylamino)-azetidine-1-carboxylic acid [4-(3-fluoro-phenoxy)-phenyl]-amide] | 310 nM
11 | O=C(Nc1ccc(Oc2ccccc2F)cc1)N1CC(NC2CCc3cc(F)ccc32)C1 (centres unmarked) [Example 14, 3-(5-Fluoro-indan-1-ylamino)-azetidine-1-carboxylic acid [4-(2-fluoro-phenoxy)-phenyl]-amide] | 540 nM
12 | O=C(Nc1ccc(Oc2ccc(F)cc2)c(F)c1)N1CC(NC2CCc3cc(Cl)ccc32)C1 (centres unmarked) [Example 15, 3-(5-Chloro-indan-1-ylamino)-azetidine-1-carboxylic acid [3-fluoro-4-(4-fluoro-phenoxy)-phenyl]-amide] | 650 nM
13 | O=C(Nc1ccc(Oc2ccc(F)cc2)c(F)c1)N1CC(NC2CCc3cc(Br)ccc32)C1 (centres unmarked) [Example 16, 3-(5-Bromo-indan-1-ylamino)-azetidine-1-carboxylic acid [3-fluoro-4-(4-fluoro-phenoxy)-phenyl]-amide] | 1720 nM
14 | O=C(Nc1ccc(Oc2ccc(F)cc2)cc1)N1CC(NC2CCc3cc(Br)ccc32)C1 (centres unmarked) [Example 17, 3-(5-Bromo-indan-1-ylamino)-azetidine-1-carboxylic acid [4-(4-fluoro-phenoxy)-phenyl]-amide] | 540 nM
15 | O=C(Nc1ccc(Oc2ccc(F)cc2)cc1)N1CC(NC2CCc3cc(Cl)ccc32)C1 (centres unmarked) [Example 18, 3-(5-Chloro-indan-1-ylamino)-azetidine-1-carboxylic acid [4-(4-fluoro-phenoxy)-phenyl]-amide] | 620 nM
16 | O=C(Nc1ccc(Oc2ccc(F)cc2)cc1)N1CC(NC2CCCc3ccccc32)C1 (centres unmarked) [Example 19, 3-(1,2,3,4-Tetrahydro-naphthalen-1-ylamino)-azetidine-1-carboxylic acid [4-(4-fluoro-phenoxy)-phenyl]-amide] | 190 nM

Row | SMILES | IC50
17 | CN(C(=O)N1CC(NC2CCc3cc(F)ccc32)C1)c1ccc(Oc2ccc(F)cc2)cc1 (centres unmarked) [Example 20, 3-(5-Fluoro-indan-1-ylamino)-azetidine-1-carboxylic acid [4-(4-fluoro-phenoxy)-phenyl]-methyl-amide] | 700 nM
18 | COc1ccc2c(c1)CCC2NC1CN(C(=O)Nc2ccc(Oc3ccc(F)cc3)cc2)C1 (centres unmarked) [Example 21, 3-(5-Methoxy-indan-1-ylamino)-azetidine-1-carboxylic acid [4-(4-fluoro-phenoxy)-phenyl]-amide] | 310 nM
19 | O=C(Nc1ccc(C(F)(F)F)cc1)N1CC(NC2CCc3cc(F)ccc32)C1 (centres unmarked) [Example 22, 3-(5-Fluoro-indan-1-ylamino)-azetidine-1-carboxylic acid (4-trifluoromethyl-phenyl)-amide] | 3110 nM
20 | O=C(Nc1cccc(C(F)(F)F)c1)N1CC(NC2CCc3cc(F)ccc32)C1 (centres unmarked) [Example 24, 3-(5-Fluoro-indan-1-ylamino)-azetidine-1-carboxylic acid (3-trifluoromethyl-phenyl)-amide] | 2680 nM
21 | CC1Cc2ccccc2C1NC1CN(C(=O)Nc2ccc(Oc3ccccc3)cc2)C1 (centres unmarked) [Example 25, 3-(2-Methyl-indan-1-ylamino)-azetidine-1-carboxylic acid (4-phenoxy-phenyl)-amide] | 840 nM
22 | CC1CC(NC2CN(C(=O)Nc3ccc(Oc4ccccc4)cc3)C2)c2ccccc21 (centres unmarked) [Example 26, 3-(3-Methyl-indan-1-ylamino)-azetidine-1-carboxylic acid (4-phenoxy-phenyl)-amide] | 240 nM
23 | O=C(Nc1ccc(Oc2ccccc2)cc1)N1CC(NC2CCc3cc(F)ccc32)C1 (centres unmarked) [Example 27, 3-(5-Fluoro-indan-1-ylamino)-azetidine-1-carboxylic acid (4-phenoxy-phenyl)-amide] | 270 nM
24 | O=C(Nc1cccc(Oc2ccccc2)c1)N1CC(NC2CCc3cc(F)ccc32)C1 (centres unmarked) [Example 28, 3-(5-Fluoro-indan-1-ylamino)-azetidine-1-carboxylic acid (3-phenoxy-phenyl)-amide] | 430 nM
25 | CN(C1CN(C(=O)Nc2cccc(Oc3ccccc3)c2)C1)C1CCc2cc(F)ccc21 (centres unmarked) [Example 29, 3-[(5-Fluoro-indan-1-yl)-methyl-amino]-azetidine-1-carboxylic acid (3-phenoxy-phenyl)-amide] | 420 nM
26 | O=C(Nc1ccc(Oc2ccccc2)cc1)N1CC(NC2CCc3ccccc32)C1 (centres unmarked) [Example 30, 3-(Indan-1-ylamino)-azetidine-1-carboxylic acid (4-phenoxy-phenyl)-amide] | 260 nM
27 | O=C(c1ccccc1)c1ccc(NC(=O)N2CC(NC3CCc4cc(F)ccc43)C2)cc1 (centres unmarked) [Example 31, 3-(5-Fluoro-indan-1-ylamino)-azetidine-1-carboxylic acid (4-benzoyl-phenyl)-amide] | 7250 nM
28 | O=C(Nc1ccc(C(F)(F)F)cc1)N1CC(NC2CCc3ccccc3C2)C1 (centres unmarked) [Example 32, 3-(1,2,3,4-Tetrahydro-naphthalen-2-ylamino)-azetidine-1-carboxylic acid (4-trifluoromethyl-phenyl)-amide] | 450 nM
29 | O=C(Nc1ccc(C(F)(F)F)cc1)N1CC(NC2CCc3cc(O)ccc32)C1 (centres unmarked) [Example 33, 3-(5-Hydroxy-indan-1-ylamino)-azetidine-1-carboxylic acid (4-trifluoromethyl-phenyl)-amide] | 11500 nM
30 | O=C(Nc1ccc(Oc2ccccc2)cc1)N1CC(NC2CCc3ccccc3C2)C1 (centres unmarked) [Example 34, 3-(1,2,3,4-Tetrahydro-naphthalen-2-ylamino)-azetidine-1-carboxylic acid (4-phenoxy-phenyl)-amide] | 100 nM
31 | O=C(Nc1ccc(C(F)(F)F)cc1)N1CC(NC2CCc3cc(F)ccc3C2)C1 (centres unmarked) [Example 35, 3-(6-Fluoro-1,2,3,4-tetrahydro-naphthalen-2-ylamino)-azetidine-1-carboxylic acid (4-trifluoromethyl-phenyl)-amide] | 1310 nM

same assay, conditions: hNav1.8 IC50, SH-SY-5Y cells stably expressing hNaV1.8; FLIPR membrane potential dye; 10 μM pyrethroid, 250 nM TTX; test range 100 μM-0.05 μM

Row | SMILES | IC50
32 | Cc1ccccc1CC(C)NC1CN(C(=O)NC(C)c2ccc(C(F)(F)F)cc2)C1 (centres unmarked) [Example 1, 3-(1-Methyl-2-o-tolyl-ethylamino)-azetidine-1-carboxylic acid [1-(4-trifluoromethyl-phenyl)-ethyl]-amide] | 1300 nM

— US20100105651A1, “ANTAGONISTS OF SNS SODIUM CHANNELS” (priority 2005, published 2010)
